Article PMC3586822 (Chemico-biological interactions, 2012)

Molecular target: human AChE (Homo sapiens, UniProt P22303)
Test: coupled Ellman assay, second-order hydrolysis
Format: biochemical

Sequence of human AChE (P22303 32-614): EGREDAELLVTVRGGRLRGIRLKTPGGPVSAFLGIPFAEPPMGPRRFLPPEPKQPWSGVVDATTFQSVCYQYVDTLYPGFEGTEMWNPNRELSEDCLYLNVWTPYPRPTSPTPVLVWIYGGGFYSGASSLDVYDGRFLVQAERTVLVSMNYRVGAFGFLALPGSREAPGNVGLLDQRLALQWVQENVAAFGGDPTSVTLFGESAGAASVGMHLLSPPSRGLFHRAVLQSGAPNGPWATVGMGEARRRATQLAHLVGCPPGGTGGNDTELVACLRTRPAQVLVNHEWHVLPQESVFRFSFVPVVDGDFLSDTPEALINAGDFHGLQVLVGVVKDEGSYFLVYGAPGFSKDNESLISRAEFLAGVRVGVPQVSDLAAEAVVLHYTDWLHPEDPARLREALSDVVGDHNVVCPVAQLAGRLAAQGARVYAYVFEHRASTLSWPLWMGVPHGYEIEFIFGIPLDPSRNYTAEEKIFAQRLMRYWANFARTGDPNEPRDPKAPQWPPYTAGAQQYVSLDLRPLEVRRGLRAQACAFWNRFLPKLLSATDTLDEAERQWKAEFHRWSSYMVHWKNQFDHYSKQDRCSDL

Cc1ccc2c(c1)sc(-c1ccc(N(C)C)cc1)[n+]2C [thioflavin T]
Ki: 1.33 ± 0.05 µM
